Where a SMILES comes first, the peptide text is derived from it. [ ]: non-standard residue; d: D form.
How the values were obtained:
CT26, colon carcinoma = experiment: Tumor growth in CT26-injected Balb/c mice; assay type: in vivo
Description: (§1) CT26, EL4 were maintained at 37° C. in a humidified 5% CO2 atmosphere in RPMA1640 medium supplemented with 20% (vol/vol) heat-inactivated fetal bovine serum. For animal experiments, the cells were passaged two to five times after re-growth from frozen stocks. Log phase CT26 cells were detached from tissue culture flasks with 0.25% trypsin and 0.03% EDTA. CT26 and EL4 were washed and resuspended in PBS immediately before injection.
In order to assess the antitumor effect of immuno-modulating peptide, Trp-Arg-Tyr-Met-Val-D-Met-CONH2, (WRYMVm; (SEQ ID NO: 4)), CT26, colon carcinoma was tested in Balb/c mice model. Tumor mass was measured in size every two days after 6 days from tumor cell inoculation.
To find the effective tumor-suppressing dose of WRYMVm, 0.1 μg/mouse, 0.25 μg/mouse, and 1 μg/mouse of WRYMVm were administered to CT26/Balb/c model. […] A similar phenomenon is easily found in chemotactic migration of leukocytes. In view of the fact that FPRL1, which is a target receptor for WRYMVm, is related to the chemotactic migration event, it is concluded that WRYMVm-induced antitumor effect might be derived from leukocyte infiltration event. Therefore, it is quite necessary to reveal the direct relationship between the WRYMVm-induced antitumor effect and the leukocyte infiltration event.

FPRL1 [1] = target: T1, FPRL1 (Homo sapiens, UniProt P25090); experiment: Exocytosis: β-hexosaminidase secretion in FPRL1-expressing RBL-2H3 cells; assay type: cell-based; settings: FPRL1 cells; 10 μM BAPTA/AM prior to 1 μM WKYMVm
T1 construct: expressed in transfected cells; host or cells: RBL-2H3 (rat basophilic leukemia) cells, G418-selected
T1 sequence (P25090 1-351): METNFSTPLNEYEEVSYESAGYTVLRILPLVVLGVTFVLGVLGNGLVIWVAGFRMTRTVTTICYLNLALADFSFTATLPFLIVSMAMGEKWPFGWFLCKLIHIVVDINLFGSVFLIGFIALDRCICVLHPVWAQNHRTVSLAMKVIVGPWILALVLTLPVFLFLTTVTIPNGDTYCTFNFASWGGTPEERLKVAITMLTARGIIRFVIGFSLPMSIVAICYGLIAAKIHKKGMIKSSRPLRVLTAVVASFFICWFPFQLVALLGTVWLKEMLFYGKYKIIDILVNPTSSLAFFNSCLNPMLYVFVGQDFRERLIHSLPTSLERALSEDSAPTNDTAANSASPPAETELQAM
Description: (§2) Granule secretion is one of the most important function of mast cells (20). The effect of WKYMVm on granule secretion was checked by measuring β-hexosaminidase secretion as described above (18). Briefly, RBL-2H3 cells (2×10^5/well) expressing FPR or FPRL1 were cultured overnight in a 24-well tissue culture plate. The cells were washed twice with Tyrode's buffer (137 mM NaCl, 12 mM NaHCO3, 5.6 mM glucose, 2.7 mM KCl, 1 mM CaCl2, 0.5 mM MgCl2, 0.4 mM NaH2PO4, 0.1g/100 ml BSA, and 25 mM HEPES, pH 7.4) and stimulated with each peptide. Various concentrations of WKYMVm were treated in FPR- or FPRL1-expressing RBL-2H3 cells (FIG. 5A). 1 μM of WKYMVm was used to stimulate two cell lines in the absence or presence of 10 μM BAPTA/AM (FIG. 5B). The reaction was terminated 20 min after stimulation by placing the plate on ice. Secretion of β-hexosaminidase into the medium was determined by incubating 50 μl of supernatant or cell lysate with 25 μl of 5 mM p-nitrophenyl-N-acetyl-β-D-glucosamide in 0.1 M sodium citrate buffer (pH 3.8) at 37° C. for 2 hr. At the end of the incubation, 50 μl of 0.4 M Na2CO3 were added. Absorbance was monitored at 405 nm. Data are means ±S.E. of a single representative of three experiments performed in triplicate. Values (means ±S.E.) were expressed as a percent of total β-hexosaminidase present in the cells.
10 μM of each peptide was treated in FPR- (FIG. 6A) or FPRL1-expressing RBL-2H3 cells (FIG. 6B). The peptide-induced secretion of β-hexosaminidase was determined as above. Data are means ±S.E. of a single representative of three experiments performed in triplicate.

FPRL1 [2] = target: T1, FPRL1; experiment: ERK phosphorylation in FPRL1-expressing RBL-2H3 cells (immunoblot); assay type: cell-based; settings: pretreatment prior to 1 μM WKYMVm, PTX 100 ng/ml, LY294002 50 μM, GFX 5 μM, BAPTA/AM 10 μM, PD98059 50 μM
Description: (§3) Cultured RBL-2H3 cells were aliquoted into 2×10^6 cells and stimulated with the indicated concentrations of WKYMVm and the peptides of the present invention for the indicated lengths of time. FPR- or FPRL1-expressing RBL-2H3 cells were stimulated with 1 μM WKYMVm for various periods of time (FIG. 3A). Two cells were preincubated with a vehicle or 100 ng/ml of PTX (24 hr), 50 μM of LY294002 (15 min), 5 μM of GFX (15 min), 10 μM BAPTA/AM (60 min), or 50 μM PD98059 (60 min) prior to 1 μM of WKYMVm treatment (FIG. 3B). FPR- or FPRL1-expressing RBL2H3 cells were stimulated with 10 μM of the peptides of the present invention for 2 min or 5 min, respectively (FIG. 3C).
(§4) After stimulation, the cells were washed with serum-free RPMI and lysed in a lysis buffer (20 mM Hepes, pH 7.2, 10% glycerol, 150 mM NaCl, 1% Triton X-100, 50 mM NaF, 1 mM Na3VO4, 10 μg/ml leupeptin, 10 μg/ml aprotinin, and 1 mM phenylmethylsulfonyl fluoride). The detergent-insoluble materials were pelleted by centrifugation (12,000×g, 15 min, at 4° C.), and the soluble supernatant fraction was removed and stored at −80° C. or used immediately. Protein concentrations in the lysates were determined using the Bradford protein assay reagent.
(§5) Each sample ([…] of protein) was subjected to 10% SDS-PAGE and phosphorylated ERK was determined by an immunoblot analysis with an anti-phospho-ERK antibody. Protein samples were prepared for electrophoresis by addition of a concentrated sample buffer. The portions in the samples were then separated by an 10% SDS-polyacrylamide gel using the buffer system described by Laemmli (17).
(§6) Following the electrophoresis, a western blot analysis with an anti-ERK2 antibody was performed to confirm that the same amounts of samples were used for the experiments. The proteins were blotted onto nitrocellulose membranes. The nitrocellulose membranes were then blocked by incubation with TBS (Tris-buffered saline, 0.05% Tween-20) containing 5% non-fat dry milk. Subsequently, the membranes were incubated with anti-phospho-ERK antibody, anti-phospho-Akt antibody or anti-Akt antibody washed with TBS. For a PKC translocation assay, an antibody for PKC isozyme-specific was incubated. Antigen-antibody complexes were visualized after incubating the membrane with a 1:5000 diluted goat anti-rabbit IgG or goat anti-mouse IgG antibody coupled to horseradish peroxidase and using the enhanced chemiluminescence detection system.

FPR [3] = target: T2, FPR (Homo sapiens, UniProt P21462); experiment: Exocytosis: β-hexosaminidase secretion in FPR-expressing RBL-2H3 cells; assay type: cell-based; settings: FPR cells; 10 μM BAPTA/AM prior to 1 μM WKYMVm
T2 construct: expressed in transfected cells; host or cells: RBL-2H3 (rat basophilic leukemia) cells, G418-selected
T2 sequence (P21462 1-350): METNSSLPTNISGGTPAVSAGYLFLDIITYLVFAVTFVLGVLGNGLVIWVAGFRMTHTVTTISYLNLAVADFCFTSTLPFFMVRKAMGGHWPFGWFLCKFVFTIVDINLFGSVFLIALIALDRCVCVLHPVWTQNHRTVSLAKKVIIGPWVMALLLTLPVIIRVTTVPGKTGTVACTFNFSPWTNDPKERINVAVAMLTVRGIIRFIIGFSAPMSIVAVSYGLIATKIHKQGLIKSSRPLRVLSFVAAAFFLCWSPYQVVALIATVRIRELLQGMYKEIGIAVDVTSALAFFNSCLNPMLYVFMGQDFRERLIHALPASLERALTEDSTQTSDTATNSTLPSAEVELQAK
Description: as §2
From the new finding that cytosolic calcium release was induced by WKYMVm and many of the substituted peptides of WKYMVm but not by some of them (WKGMVm (SEQ ID NO: 1), WKRMVm (SEQ ID NO: 11), D-Met^6 substituted peptides), the effect of the peptides on granule secretion in RBL cells was checked. 10 μM of each peptide was treated in FPR- (FIG. 6A) or FPRL1-expressing RBL-2H3 cells (FIG. 6B). The peptide-induced secretion of β-hexosaminidase was determined as above. Data are means ±S.E. of a single representative of three experiments performed in triplicate.

FPR [4] = target: T2, FPR; experiment: ERK phosphorylation in FPR-expressing RBL-2H3 cells (immunoblot); assay type: cell-based; settings: pretreatment prior to 1 μM WKYMVm, PTX 100 ng/ml, LY294002 50 μM, GFX 5 μM, BAPTA/AM 10 μM, PD98059 50 μM
Description: as §3, §4, §5, §6

FPRL1 [5] = target: T1, FPRL1; experiment: [Ca2+]i increase in FPRL1-expressing RBL-2H3 cells (fura-2); assay type: cell-based
Description: […] The level of [Ca^2+]i was determined fluorometrically by Grynkiewicz's method using fura-2/AM (15). Briefly, prepared cells were incubated with 3 μM fura-2/AM at 37° C. for 50 min in a fresh serum-free RPMI 1640 medium under continuous stirring. 2×10^6 cells were aliquoted for each assay in Ca^2+-free Locke's solution (154 mM NaCl, 5.6 mM KCl, 1.2 mM MgCl2, 5 mM HEPES, pH 7.3, 10 mM glucose, and 0.2 mM EGTA). Fluorescence changes at the dual excitation wavelengths of 340 nm and 380 nm and the emission wavelength of 500 nm were measured, and the calibrated fluorescence ratio was translated into [Ca^2+]i. The peak level of the increased [Ca^2+]i was monitored.
[…] The level of [Ca^2+]i was determined by the same procedures as above. The peak level of the increased [Ca^2+]i was monitored.

human neutrophils = experiment: Superoxide generation in human neutrophils (cytochrome c reduction); assay type: cell-based; settings: for O^2− (nmol/10^6 cells), superoxide generation: cytochrome c reduction
Description: Peripheral blood leukocyte concentrates were donated by the Ulsan Red Cross Blood Center (Ulsan, Korea). Human neutrophils were isolated according to the standard procedures of dextran sedimentation, hypotonic lysis of erythrocytes, and a lymphocyte separation medium gradient as described above (9). The isolated human neutrophils were then used promptly.
The activity of the peptides, WKYMVm, peptides of SEQ ID NOs: 1 to 24, and wkymvm on superoxide generation in human neutrophils was measured. Superoxide anion generation was quantified by measuring reduction of cytochrome c using a microtiter 96-well plate ELISA reader (Bio-Tekinstruments, EL312e, Winooski, Vt.) as described (14). The human neutrophils (1×10^6 cells/100 μl of RPMI 1640 medium per well of a 96-well plate) were preincubated with 50 μM cytochrome c at 37° C. for 1 min and then incubated with the indicated concentrations of peptides. The superoxide generation was measured as a change in light absorption at 550 nm over 5 minutes at 1 min intervals. From at least four independent experiments, peptides with active amino acids at each position were chosen.

EL4, lymphoma cells = experiment: Tumor growth in EL4-injected C57/BL6 mice; assay type: in vivo; settings: EL4 2×10^5 cells/mouse s.c.
Description: as §1
To confirm the antitumor effect of WRYMVm, another tumor model, EL4, lymphoma cells was tested. In order to form the tumor mass of EL4, EL4 (2×10^5 cells/mouse) were injected s.c to C57/BL6 mice. […] Overall, it appears obvious that WRYMVm has a tumor growth-suppressing effect in mice model.

## 5′-TCGTCGTTTTGTCGTTTTGTCGTT-3′ [CpG ODN, reference compound]
tumor; survival rate, FIG. 12B
  survival: failed to prevent death
CT26, colon carcinoma; 100 μg/mouse i.p.
  effect on tumor growth: didn't show any effect on tumor growth

## CC(=O)OCOC(=O)CN(CC(=O)OCOC(C)=O)c1ccccc1OCCOc1ccccc1N(CC(=O)OCOC(C)=O)CC(=O)OCOC(C)=O [BAPTA/AM]
FPRL1 [1]
  effect on WKYMVm-induced granule secretion: almost completely inhibited WKYMVm-induced granule secretion
FPRL1 [2]
  effect of inhibitor pretreatment on WKYMVm-induced ERKs activation: could not effect WKYMVm-induced ERK activation
FPR [3]
  effect on WKYMVm-induced granule secretion: almost completely inhibited WKYMVm-induced granule secretion
FPR [4]
  effect of inhibitor pretreatment on WKYMVm-induced ERKs activation: could not effect WKYMVm-induced ERK activation

## CSCC[C@H](NC(=O)[C@H](Cc1ccc(O)cc1)NC(=O)[C@H](CCCNC(=N)N)NC(=O)[C@@H](N)Cc1c[nH]c2ccccc12)C(=O)N[C@H](C(=O)N[C@H](CCSC)C(N)=O)C(C)C [WRYMVm-NH2, Trp-Arg-Tyr-Met-Val-D-Met-NH2] (H-WRYMV[dM]-NH2; N-terminus assumed)
FPRL1 [5]
  [Ca^2+]i increasing activity: higher affinity to FPRL1
FPRL1 [5]; fura-2 loaded, read-out: EC50 (nM), intracellular calcium increase
  EC50: 0.12 ± 0.01 nM
Human neutrophils; 100 nM of peptides
  superoxide generating activity: stimulated superoxide generation
Human neutrophils; peptide 100 nM
  O^2− (nmol/10^6 cells), superoxide generation: 47.1 ± 11.23 nmol/10^6 cells
Human neutrophils; peptide 10 μM
  O^2− (nmol/10^6 cells), superoxide generation: 38.2 ± 6.54 nmol/10^6 cells
tumor; vincristine i.p. 2 μg/mouse 8 hours prior to peptide injection
  tumor growth suppression / antitumor activity: ability to suppress tumor growth
CT26, colon carcinoma; 0.1 μg/mouse, compared with 0.25 and 1 μg/mouse
  tumor suppression: highest effectiveness in the tumor suppression
CT26, colon carcinoma; 1 μg/mouse
  tumor suppression: the tumor suppressing effect was lowered
CT26, colon carcinoma; FIGS. 9A and 9B
  tumor growth in CT26-injected mice (figure legend): attenuates tumor growth
EL4, lymphoma cells
  tumor mass suppression: able to suppress tumor mass of EL4

Source: patent US7517857B2, “Immune-modulating peptide” (POSCO, priority 2002, dated 2009)
